# Data from patent US10131679B2, “Substituted dihydropyrrolopyrazole compound” (UBE INDUSTRIES, LTD., priority 2014, dated 2018).
# Assays:
# [1] = test system: mouse imiquimod-induced psoriasis model; assay: Ear thickening suppression test using mouse imiquimod-induced psoriasis model; type: in vivo; conditions: topical, 120 h, thickness measured on day 5, BALB/c mice, read-out: rate of inhibition of increase in right auricle thickness; for inhibition in vivo at 1 %: application of a 1% solution in methanol for 4 days; for inhibition in vivo at 0.01 %: application of a 0.01% methanol solution for 4 days
# Experimental: Ear Thickening Suppression Test Using Mouse Imiquimod-Induced Psoriasis Model
# An imiquimod-induced psoriasis model test was carried out by modifying the method of Leslie van der Fits et al. (J. Immunol. 182, 5836 (2009)). BALB/c mice were used (female, supplied by Charles River Laboratories Japan, Inc.) as laboratory animals. On the start day of the test, the thicknesses of the right auricles of the mice were measured with a thickness gauge (model SMD-565J manufactured by TECLOCK Corp.). A test compound solution or only a solvent was applied or orally administered, and after 60 minutes, 5 mg of imiquimod (Beselna Cream 5% manufactured by Mochida Pharmaceutical Co., Ltd.) was applied to the insides of the right auricles. The test compound solution or solvent administration and the imiquimod application were carried out for 4 days, and the thicknesses of the right auricles were measured again on day 5. When increase in the thicknesses of the right auricles of the solvent-administered group on day 5 was defined as 100%, the rate of inhibition of increase (%) at each dose of the test compound was calculated.
# CDK7 = target: T1, CDK7 (Homo sapiens, UniProt P50613); assay: CDK7 enzyme inhibition test; type: biochemical; conditions: Ki=IC50/(1+S/Km); 33P bound to MBP, [γ-33P]ATP, 30° C. for 20 minutes; read-out: Ki value of CDK7 inhibitory activity
# T1 construct: purchased Carna Biosciences, Inc. 04-108
# Outline: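 Recombinant CDK7 with MBP substrate and [γ-33P]ATP (500 μM solution, diluted into the mix) in HEPES pH 7.4/DTT/Triton X-100/MgCl2, 20 min at 30 °C. TCA-precipitated 33P-MBP counted by scintillation; IC50 from inhibition, Ki = IC50/(1+S/Km).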
# [2] = test system: IL-2 production in human peripheral blood mononuclear cell (PBMC); assay: Human PBMC CD3/CD28-induced IL-2 production inhibition test; type: cell-based; conditions: 48 h, CD3/CD28 stimulation, incubation for 2 days, ELISA
# Text: Human Peripheral Blood Mononuclear Cell (PBMC) CD3/CD28-Induced IL-2 Production Inhibition Test
# PBMC was separated and collected by using Ficoll-Paque (17-1440-02 manufactured by GE Healthcare Japan Corp.) from blood collected from healthy human adult in the presence of heparin. RPMI1640 medium (manufactured by GIBCO/Thermo Fisher Scientific, Inc., REF. 11875) containing 10% FBS (manufactured by GIBCO/Thermo Fisher Scientific, Inc. REF. 10082) and containing a test compound dissolved in DMSO and 2 μg/mL anti-hCD28 (manufactured by R&D Systems, Inc., Cat. No. MAB342) was added at 100 μL/well to T cell Activation Plate Anti-Human CD3 96-well plate (manufactured by Corning Inc., REF. 354725), and subsequently, a PBMC suspension adjusted such that the number of cells was 2×10^6 cells/mL was added at 100 μL/well (final DMSO concentration: 0.1%). A RPMI1640 medium containing 10% FBS and containing 0.1% DMSO and 2 μg/mL anti-hCD28 was similarly added to wells not supplemented with the test compound. After incubation for 2 days in a carbon dioxide incubator, the culture supernatant was collected. The collected culture supernatant was stored at −20° C. until IL-2 content measurement.
# In the measurement of IL-2 content in the culture supernatant, a sandwich ELISA kit Quantikine Human IL-2 (manufactured by R&D Systems, Inc., Cat. No. S2050) was used. The IL-2 content of each sample was calculated from the calibration curve of Standard IL-2 included in the kit. When the amount of IL-2 produced by CD3/CD28 stimulation in the case of the addition of only DMSO was defined as 100%, the rate of inhibition of IL-2 production at each concentration of the test compound was calculated. A test compound concentration inhibiting 50% of IL-2 production was calculated as an IC50 value (nM) from the concentration of the added test compound and the rate of inhibition of IL-2 production by the test compound by using EXSUS (version 8.0.0 or version 8.0.1, manufactured by CAC Exicare Corp.).
# [3] = test system: human large intestine cancer cell line (HCT-116); assay: Human large intestine cancer (HCT-116) cell growth inhibition test; type: cell-based; conditions: 72 h, HCT-116, culture for 3 days, sulforhodamine B absorbance
# Outline: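 HCT-116 cells seeded at 1.0×10^3 cells/well in McCoy's 5a with 10% FBS, then exposed to compound (0.1% DMSO final) for 3 days. Growth measured by sulforhodamine B absorbance; IC50 derived from concentration-inhibition data.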
# [4] = test system: Human keratinocytes (NHEK-Neo Pooled); assay: Human keratinocyte growth inhibition assay; type: cell-based; conditions: 48 h, culture for 2 days, Cell Counting Kit-8
# Experimental: Human Keratinocyte Growth Inhibition Assay
# The measurement of a human keratinocyte growth inhibitory effect was carried out by modifying the method of Schafer et al. (British Journal of Pharmacology, 159, 842 (2011)).
# Human keratinocytes (NHEK-Neo Pooled, manufactured by Lonza Group AG, Cat. No. 00192906) were cultured in KGM-Gold Bullet Kit (manufactured by Lonza Group AG, Cat. No. 00192060) and inoculated at 2.0×10^3 cells/well to a 96-well plate. After overnight culture in a carbon dioxide incubator, a test compound dissolved in DMSO (final DMSO concentration: 0.1%) was added and left standing in a carbon dioxide incubator. After culture for 2 days, the absorbance thereof was measured by using Cell Counting Kit-8 (343-07623 manufactured by Dojindo Laboratories)).
# The rate of inhibition of cell growth at each concentration was calculated from the test compound concentration and the absorbance of Cell Counting Kit-8, and the concentration of the test compound necessary for inhibiting 50% of cell growth (IC50 value) was calculated by using EXSUS (version 8.0.0 or version 8.0.1, manufactured by CAC Exicare Corp.).
# T1 sequence (P50613 whole entry): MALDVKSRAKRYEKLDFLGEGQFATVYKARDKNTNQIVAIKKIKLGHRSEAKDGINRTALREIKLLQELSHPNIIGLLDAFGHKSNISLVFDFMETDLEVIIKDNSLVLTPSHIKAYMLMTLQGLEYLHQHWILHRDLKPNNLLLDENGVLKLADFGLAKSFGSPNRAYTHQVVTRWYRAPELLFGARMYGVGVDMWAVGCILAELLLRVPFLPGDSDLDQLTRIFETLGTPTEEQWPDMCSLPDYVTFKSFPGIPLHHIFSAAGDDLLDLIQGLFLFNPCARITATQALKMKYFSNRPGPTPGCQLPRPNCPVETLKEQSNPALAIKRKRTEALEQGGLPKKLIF
# T1 sequence (P51946 whole entry partner): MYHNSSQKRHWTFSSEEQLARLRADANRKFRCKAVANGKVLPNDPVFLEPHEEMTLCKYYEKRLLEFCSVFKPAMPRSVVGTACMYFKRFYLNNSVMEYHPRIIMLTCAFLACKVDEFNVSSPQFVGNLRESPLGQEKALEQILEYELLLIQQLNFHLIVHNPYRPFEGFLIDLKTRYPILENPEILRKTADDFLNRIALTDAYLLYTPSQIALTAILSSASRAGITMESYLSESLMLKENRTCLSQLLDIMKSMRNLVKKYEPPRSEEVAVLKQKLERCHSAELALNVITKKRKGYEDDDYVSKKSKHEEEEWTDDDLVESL
# T1 sequence (P51948 whole entry partner): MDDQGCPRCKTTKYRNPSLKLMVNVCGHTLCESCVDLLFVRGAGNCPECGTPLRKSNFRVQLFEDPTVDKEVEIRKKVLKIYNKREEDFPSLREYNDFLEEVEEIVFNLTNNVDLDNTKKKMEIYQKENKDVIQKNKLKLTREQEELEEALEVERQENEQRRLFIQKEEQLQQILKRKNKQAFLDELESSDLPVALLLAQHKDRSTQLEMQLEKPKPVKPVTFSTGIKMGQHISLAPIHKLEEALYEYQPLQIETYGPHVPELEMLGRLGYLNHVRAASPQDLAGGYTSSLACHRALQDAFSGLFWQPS
Ki (CDK7) [nM],IC50 [3] [nM],Structure (SMILES),inhibition in vivo at 1 % [1] [%],IC50 [4] [nM],other results
,,"CCC(=O)OC[C@@H](NC(=O)N1Cc2c(NC(=O)C3([Si](C)(C)C)CCC3)n[nH]c2C1(C)C)c1ccccc1 [V-1446, (S)-2-{6,6-Dimethyl-3-[1-(trimethylsilyl)cyclobutanecarboxamido]-1,4,5,6-tetrahydropyrrolo[3,4-c]pyrazole-5-carboxamido}-2-phenylethyl propionate]",≥ 50,,
≤ 50,≤ 500,"CC1(C)c2[nH]nc(NC(=O)C3([Si](C)(C)C)CCC3)c2CN1C(=O)NC(CO)c1ccccc1F (stereo not shown) [IV-510, N-[1-(2-Fluorophenyl)-2-hydroxyethyl]-6,6-dimethyl-3-[1-(trimethylsilyl)cyclobutanecarboxamido]-4,6-dihydropyrrolo[3,4-c]pyrazole-5(1H)-carboxamide]",,,IC50 [2]: ≤ 50 nM
≤ 50,≤ 500,"CC1(C)c2[nH]nc(NC(=O)C3([Si](C)(C)C)CCC3)c2CN1C(=O)NC(C#CCO)c1ccccc1 (racemic) [IV-378, N-(4-Hydroxy-1-phenyl-2-butyn-1-yl)-6,6-dimethyl-3-[1-(trimethylsilyl)cyclobutanecarboxamido]-4,6-dihydropyrrolo[3,4-c]pyrazole-5(1H)-carboxamide]",,≤ 500,
≤ 50,≤ 500,"CC(OC1CCCCC1)C(=O)N1Cc2c(NC(=O)C3([Si](C)(C)C)CCC3)n[nH]c2C1(C)C (stereo not shown) [IV-1255, N-{5-[2-(Cyclohexyloxy)propanoyl]-6,6-dimethyl-1,4,5,6-tetrahydropyrrolo[3,4-c]pyrazol-3-yl}-1-(trimethylsilyl)cyclobutanecarboxamide]",,,IC50 [2]: ≤ 50 nM
,,"CC(C)C(=O)OC[C@@H](NC(=O)N1Cc2c(NC(=O)C3([Si](C)(C)C)CCC3)n[nH]c2C1(C)C)c1ccccc1 [V-1454, (S)-2-{6,6-Dimethyl-3-[1-(trimethylsilyl)cyclobutanecarboxamido]-1,4,5,6-tetrahydropyrrolo[3,4-c]pyrazole-5-carboxamido}-2-phenylethyl isobutanoate]",≥ 50,,
,,"CC(=O)OC[C@@H](NC(=O)N1Cc2c(NC(=O)C3([Si](C)(C)C)CCC3)n[nH]c2C1(C)C)c1ccccc1 [V-1442, (S)-2-{6,6-Dimethyl-3-[1-(trimethylsilyl)cyclobutanecarboxamido]-1,4,5,6-tetrahydropyrrolo[3,4-c]pyrazole-5-carboxamido}-2-phenylethyl acetate]",≥ 50,,
≤ 50,≤ 500,"CC1(C)c2[nH]nc(NC(=O)C3([Si](C)(C)C)CCC3)c2CN1C(=O)N[C@H](CO)c1ccc(F)cc1 [IV-527, (S)—N-[1-(4-Fluorophenyl)-2-hydroxyethyl]-6,6-dimethyl-3-[1-(trimethylsilyl)cyclobutanecarboxamido]-4,6-dihydropyrrolo[3,4-c]pyrazole-5(1H)-carboxamide]",,≤ 500,IC50 [2]: ≤ 50 nM
,,"CCCCCCCCCCCC(=O)OC[C@@H](NC(=O)N1Cc2c(NC(=O)C3([Si](C)(C)C)CCC3)n[nH]c2C1(C)C)c1ccccc1 [V-1474, (S)-2-{6,6-Dimethyl-3-[1-(trimethylsilyl)cyclobutanecarboxamido]-1,4,5,6-tetrahydropyrrolo[3,4-c]pyrazole-5-carboxamido}-2-phenylethyl dodecanoate]",≥ 50,,
,,"CC(C)(C)C(=O)OC[C@@H](NC(=O)N1Cc2c(NC(=O)C3([Si](C)(C)C)CCC3)n[nH]c2C1(C)C)c1ccccc1 [V-1462, (S)-2-{6,6-Dimethyl-3-[1-(trimethylsilyl)cyclobutanecarboxamido]-1,4,5,6-tetrahydropyrrolo[3,4-c]pyrazole-5-carboxamido}-2-phenylethyl pivalate]",≥ 50,,
,,"COCC(C)(C)C(NC(=O)N1Cc2c(NC(=O)C3([Si](C)(C)C)CCC3)n[nH]c2C1(C)C)c1ccccc1 (stereo not shown) [IV-676, N-(3-Methoxy-2,2-dimethyl-1-phenylpropyl)-6,6-dimethyl-3-[1-(trimethylsilyl)cyclobutanecarboxamido]-4,6-dihydropyrrolo[3,4-c]pyrazole-5(1H)-carboxamide]",,,inhibition in vivo at 0.01 % [1]: ≥ 50%
≤ 50,≤ 500,"CC1(C)c2[nH]nc(NC(=O)C3([Si](C)(C)C)CCC3)c2CN1C(=O)N[C@H](CO)c1cccc(F)c1 [IV-519, (S)—N-[1-(3-Fluorophenyl)-2-hydroxyethyl]-6,6-dimethyl-3-[1-(trimethylsilyl)cyclobutanecarboxamido]-4,6-dihydropyrrolo[3,4-c]pyrazole-5(1H)-carboxamide]",,≤ 500,IC50 [2]: ≤ 50 nM
,,"CCCCO[C@@H](C(=O)N1Cc2c(NC(=O)C3([Si](C)(C)C)CCC3)n[nH]c2C1(C)C)c1ccccc1 [IV-1200, (R)—N-[5-(2-Butoxy-2-phenylacetyl)-6,6-dimethyl-1,4,5,6-tetrahydropyrrolo[3,4-c]pyrazol-3-yl]-1-(trimethylsilyl)cyclobutanecarboxamide]",,,inhibition in vivo at 0.01 % [1]: ≥ 50%
,,"CCCCCCCC(=O)OC[C@@H](NC(=O)N1Cc2c(NC(=O)C3([Si](C)(C)C)CCC3)n[nH]c2C1(C)C)c1ccccc1 [V-1470, (S)-2-{6,6-Dimethyl-3-[1-(trimethylsilyl)cyclobutanecarboxamido]-1,4,5,6-tetrahydropyrrolo[3,4-c]pyrazole-5-carboxamido}-2-phenylethyl octanoate]",≥ 50,,
≤ 50,≤ 500,"CO[C@@H](C(=O)N1Cc2c(NC(=O)C3([Si](C)(C)C)CC3)n[nH]c2C1(C)C)c1ccccc1 [III-1059, (R)—N-[5-(2-Methoxy-2-phenylacetyl)-6,6-dimethyl-1,4,5,6-tetrahydropyrrolo[3,4-c]pyrazol-3-yl]-1-(trimethylsilyl)cyclopropanecarboxamide]",,≤ 500,inhibition in vivo at 0.01 % [1]: ≥ 50%

Structure (SMILES),Ki (CDK7) [nM],IC50 [3] [nM],inhibition in vivo at 1 % [1] [%],IC50 [4] [nM],other results
"CC1(C)c2[nH]nc(NC(=O)C3([Si](C)(C)C)CCC3)c2CN1C(=O)N[C@H](COC(F)F)c1ccccc1 [IV-131, (S)—N-[2-(Difluoromethoxy)-1-phenylethyl]-6,6-dimethyl-3-[1-(trimethylsilyl)cyclobutanecarboxamido]-4,6-dihydropyrrolo[3,4-c]pyrazole-5(1H)-carboxamide]",,≤ 500,,≤ 500,
